Test results: patent US20080014248A1, “Photosensitizer containing indole-3-alkylcarboxylic acid, and kit for photodynamic therapy containing the same” (priority 2006, published 2008)

Assays:
[1] = tested on: normal human fibroblasts; assay: Toxicity experiment (MTT assay), IAA with UVB irradiation, fibroblasts; type: cell-based; settings: 1 to 1000 mM, 20 hours, FIG. 3
Experimental: (§1) (Cell Culture) After cultivating G361 human melanoma cell line (ATCC, Rockville, Md.) in a 5% CO2, 37 °C, 10% fetal bovine serum (FBS), 50 μg/mL streptomyocin, and 50 μg/mL penicillin containing DMEM culture, mouse melanoma cell line B16 (Korea Cell Bank, Seoul, Korea) liver cancer cell (SK-HEP-1, Korea Cell Bank, Seoul, Korea) was cultivated in the DMEM culture under the same conditions. Fibroblasts have been used for the separation of the foreskin during phimosiectomy. Following the skin biopsy method of Rheinward and Green (Rheinwald J G, Green H. Serial cultivation of strains of human epidermal keratinocytes; the formation of keratinizing colonies from single cells. Cell 1975;6: 331-43.), the […] were cultivated in a 10% fetal bovine serum (FBS), 50 μg/mL of streptomyocin, and 50 μg/mL of penicillin containing DMEM culture.
(§2) The cells cultivated in the medium were divided into 24 wells (4×10^4/well), and was then cultivated in a medium without FBS for 24 hours. Cytotoxic effect was measured using MTT (3,4-dimethylthiazol-2-yl)2,5-diphenyltetrazolium bromide) assay. An ICA group treated with UVB (100 mJ/cm^2) and a group with ICA alone were separated, each with a final IAA concentration between 1 and 1000 mM in the culture. […] After adding and dissolving 1 ml of dimethylsufoxide solution in the well, the absorption was measured using ELISA reader at 540 nm. […]

[2] = tested on: Human lung cancer cells (NCI-H1264 cell) tumor; assay: Treatment of cancer by combination of IAA and IPL in nude mouse (Hematoxylin & Eosin stain, TUNEL assay); type: in vivo; settings: IAA 50 mg/kg intravenous, 4 and 7 days after cancer cell injection, IPL 20 J/cm2 thirty minutes later, biopsy at twelve days, FIG. 6
Source text: Intense pulse light (IPL) flash lamp by Eclipse was used for visible light irradiation. 20 Irradiation of 20 J/cm^2 intensity was used with a IPL apparatus able to irradiate between 515 nm to 1200 nm. After applying transmission gel (PROGEL DA-YO Medical, Seoul, Korea) to areas of tumor formation each region was irradiated twice using IPL. Human lung cancer cells (NCI-[…] cell, 1×10^6) were subcutaneously injected into nude mouse (Charles River Lab. Wilmington, Mass./male, 6 weeks old, weight 22-25 g). […] 4 and 7 days after cancer cell injection, these mice were injected with IAA (50 mg/kg). Thirty minutes after intravenous injection of IAA, mice were irradiated with IPL (20 J/cm2). Twelve days after cancer cell injection, biopsy was done and tunnel stain was also performed. […] Experimental IAA (10 mg/ml in 50 mM NaHCO/2% v/v ethanol/water, pH 7) was prepared. A control group of mice with tumor mass formation and an experimental group of mice injected with IAA (pH 7, 50 mg/kg) were separated. The injected group was again separated into two groups, one group treated with IAA after 4 days of cancer cell injection and the other after 7 days. Thirty minutes after intravenous injection of IAA, mice were irradiated with IPL (20 J/cm2). A TUNEL (Chemicon, Temecula, Calif.) assay kit was used for the present experiment. […]

[3] = tested on: Stomach cancer cell line (SNU1, SNU16, SNU601, SNU719), lung cancer cell line (NCI-H157, NCI-H1264), liver cancer cell line (SK-HEP-1); assay: Toxicity experiment of various cell types (MTT assay), IAA/HRP, cancer cells; type: cell-based; settings: 20 hours, FIG. 2a-2c
Experimental: (§3) Stomach cancer cell line (SNU1, SNU16, SNU601, SNU719, Korean Cell Bank, Seoul, Korea), and lung cancer cell line (NCI-H157, NCI-H1264, Korea Cell Bank, Seoul, Korea) were cultivated in a 5% CO2, 37 °C, 10% FBS, and 50 μg/mL penicillin containing RPMI 1640 culture (WelGene, Daegu, Korea), and liver cancer cell line (SK-HEP-1, Korean Cell Bank, Seoul, Korea) was cultivated in DMEM culture (WelGene, Daegu, Korea) under the same conditions. Fibroblasts have been used for the separation of the foreskin during phimosiectomy. […]
(§4) The cells cultivated in the medium were divided into 24 wells (4×10^4/well), and were then cultivated in a medium without FBS for 24 hours. Cytotoxic effect was measured using MTT (3,4-dimethylthiazol-2-yl)2,5-diphenyltetrazolium bromide) assay (Kim, D. S., Jeon, S. E., Park, K. C. […]
(§5) An HRP (1.2 mg/ml) treated group and a group untreated with HRP was separated, each with a final IAA concentration between 1 and 1000 mM in the culture. […] After adding and dissolving 1 ml of dimethylsufoxide solution in the well, the absorption was measured using ELISA reader at 540 nm. […]

[4] = tested on: G361 human melanoma cell line; assay: G361 cell toxicity experiment (MTT assay), IAA with or without HRP; type: cell-based; settings: 20 hours, G361 cells, FIG. 1
Experimental: G361 human melanoma cell line (ATCC, Rockville, Md.) was cultivated in a 5% CO2, 37 °C, 10% fetal bovine serum (FBS), and 50 μg/mL penicillin containing RPMI 1640 culture (WelGene, Daegu, Korea).
The cells cultivated in the medium were divided into 24 wells (4×10^4/well), and was then cultivated in a medium without FBS for 24 hours. Cytotoxic effect was measured using MTT (3,4-dimethylthiazol-2-yl)2,5-diphenyltetrazolium bromide) assay (Kim, D. S., Jeon, S. E., Park, K. C. Cell Signal, 16, 81-8, 2004).
An HRP (1.2 mg/ml, Sigma, St. Louis, Mo.) treated group (indicated by the ‘∘’ in FIG. 1) and a group untreated with HRP (indicated by the ‘▪’ in FIG. 1) were separated, each with a final IAA density between 1 and 500 mM in the culture. After cultivating for 20 hours, 0.5 mg/Ml of MTT was added to the culture and cultivated for 4 more hours. After adding and dissolving 1 ml of dimethylsufoxide solution in the well, the absorption was measured using ELISA reader (TECAN, Salzburg, Austria) at 540 nm. The viability rate for the control group was set at 100%.
(Calculations) Cell viability(%)=(experimental group/control group absorption)×100

[5] = tested on: G361 human melanoma cell line, mouse melanoma cell line B16, liver cancer cell (SK-HEP-1); assay: Toxicity experiment (MTT assay), IAA with UVB irradiation, cancer cells; type: cell-based; settings: 1 to 1000 mM, 20 hours, FIG. 3
Experimental: as §1, §2

[6] = tested on: normal human fibroblasts; assay: Toxicity experiment of various cell types (MTT assay), IAA/HRP, fibroblasts; type: cell-based; settings: 20 hours, FIG. 2a-2c
Experimental: as §3, §4, §5

[7] = Photo-activation of IAA by different wavelength of light, free radical formation by DCF (dichlorofluorescein) assay; type: physicochemical; settings: 1 mM IAA, HL-2000-HP irradiator, FIG. 4
Experimental: In order to study the effects of different wavelength of light, IAA was irradiated with HL-2000-HP (Ocean Optics, Dunedin, Fla., USA). Free radical formation was measured by DCF (dichlorofluorescein) assay. In order to induce activity of DCFH-DA, DCFH-DA was dissolved to a 1 mM concentration in 100% ethanol. 350 ul of the solution was then added to 1.75 ml of 0.01 N NaOH and allowed reaction for 5, 10, and 20 minutes. The activated DCFH-DA solution was then prepared by mixing 17.9 ml of 25 mM natrium-phosophoric acid buffer solution (pH 7.2). 1 mM of IAA was then administered to the activated DCFH-DA, and using HL-2000HP light irradiator, various wavelength filters (380, 400, 480, 520, 590, 640 nm) (Thorlabs, Inc., Long Beach, Calif., USA) were used to observe any photoactivation of IAA using each wavelength. Absorption was measured using ELISA reader at 490 nm.

[8] = tested on: NCI-H1264 cell; assay: Prevention of cancer by combining IAA and IPL (treatment before appearance of tumor mass, biopsy); type: in vivo, nude mouse; settings: IAA and IPL treatment one, three and five days after NCI-H1264 cell injection, biopsy ten days after injection, FIG. 7
Experimental: It was observed that the combination of IAA and IPL could induce cancer cell necrosis. However, prevention of histologic or distant metastasis is more important in the treatment of cancer. In order to study the prevention effect, IAA and IPL treatment was performed after cancer cell injection but before the appearance of tumor mass. One, three, and five days after NCI-[…] cell injection, IAA and IPL treatment was performed. Ten days after cancer cell injection, biopsy was done. […] Thus, it can be said that IAA and IPL treatment was effective in the prevention of distant metastasis.

**Q.** Which “toxicity (cell viability, MTT)” value ([1]; IAA alone, normal cells (fibroblasts)) does the source give for `O=C(O)Cc1c[nH]c2ccccc12` [IAA, Indole-3-acetic acid] here?
**A.** not toxic to either normal cells or cancer cells

**Q.** What about the “toxicity (cell viability, MTT)” value ([1]; IAA treated with UVB (100 mJ/cm^2), normal human fibroblasts) of the same compound?
**A.** not toxic to normal human fibroblasts

**Q.** And the “tumor necrosis (Hematoxylin & Eosin stain and TUNEL assay)” value [2]?
**A.** can induce tumor necrosis

**Q.** What about the “toxicity (cell viability, MTT)” value ([3]; IAA administered with HRP (1.2 mg/ml)) of the same compound?
**A.** toxic to most of the cancer cells

**Q.** What about the “toxicity (cell viability, MTT)” value ([3]; IAA alone, 1 to 1000 mM) of the same compound?
**A.** not toxic to either normal cells or cancer cells

**Q.** What about the “cytotoxic effects (cell viability, MTT)” value ([4]; IAA alone (no HRP), IAA 1 to 500 mM) of the same compound?
**A.** no signs of cytotoxic effects

**Q.** What about the “cytotoxic effects (cell viability, MTT)” value ([4]; IAA and HRP (1.2 mg/ml), IAA density of at least 100 mM) of the same compound?
**A.** definite cytotoxic effects

**Q.** And the “toxicity (cell viability, MTT)” value ([5]; IAA alone)?
**A.** not toxic to either normal cells or cancer cells

**Q.** What about the “toxicity (cell viability, MTT)” value ([5]; IAA treated with UVB (100 mJ/cm^2)) of the same compound?
**A.** toxic to most of the cancer cells

**Q.** What about the “toxicity (cell viability, MTT)” value ([6]; IAA administered with HRP (1.2 mg/ml), normal human fibroblasts) of the same compound?
**A.** not toxic to normal human fibroblasts

**Q.** And the “toxicity (cell viability, MTT)” value ([6]; IAA alone, 1 to 1000 mM, normal cells (fibroblasts))?
**A.** not toxic to either normal cells or cancer cells

**Q.** And the “activation of IAA by light (free radical formation, DCF assay)” value ([7]; 480 nm (blue) filter)?
**A.** particularly effective

**Q.** And the “activation of IAA by light (free radical formation, DCF assay)” value ([7]; 520 (green) filter)?
**A.** particularly effective

**Q.** And the “tumor cell growth (biopsy)” value [8]?
**A.** not observed in treated tissues
